Measured values: patent US20260297081A1, “COMPOUNDS AND METHODS OF TREATING CANCERS” (Cullgen Inc., priority 2023, published 2026)

Target: CDK4 (Homo sapiens, UniProt P11802+Q16531)
Test: CDK4 percentage degradation in Calu-1 cells (Table 6)
Type: cell-based
Set-up: Cells that express cyclin D1-3 and CDK4/6 proteins were treated with heterobifunctional compounds; endogenous in cells; host or cells: Calu-1
Conditions: 16 hours; for inhibition at 0.04 µM: 40 nM; for inhibition at 0.2 µM: 200 nM
How it was run: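 Calu-1 cells exposed to heterobifunctional compounds at 40 nM or 200 nM for 16 h. Cyclin D1 and CDK4 levels measured by Western blot of RIPA lysates (BCA-normalised loading), bands quantified by densitometry and expressed as percentage degradation.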

Sequence of CDK4 (P11802 2-303 limits assumed): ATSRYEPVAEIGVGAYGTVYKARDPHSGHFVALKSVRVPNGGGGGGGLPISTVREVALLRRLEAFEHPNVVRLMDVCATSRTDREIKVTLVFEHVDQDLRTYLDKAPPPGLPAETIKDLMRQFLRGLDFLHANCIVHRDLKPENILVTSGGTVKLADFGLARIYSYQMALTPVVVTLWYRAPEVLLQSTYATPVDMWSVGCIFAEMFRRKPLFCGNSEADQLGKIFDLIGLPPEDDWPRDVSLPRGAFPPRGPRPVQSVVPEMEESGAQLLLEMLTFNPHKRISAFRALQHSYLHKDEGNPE
Sequence of CDK4 (P24385 whole entry partner): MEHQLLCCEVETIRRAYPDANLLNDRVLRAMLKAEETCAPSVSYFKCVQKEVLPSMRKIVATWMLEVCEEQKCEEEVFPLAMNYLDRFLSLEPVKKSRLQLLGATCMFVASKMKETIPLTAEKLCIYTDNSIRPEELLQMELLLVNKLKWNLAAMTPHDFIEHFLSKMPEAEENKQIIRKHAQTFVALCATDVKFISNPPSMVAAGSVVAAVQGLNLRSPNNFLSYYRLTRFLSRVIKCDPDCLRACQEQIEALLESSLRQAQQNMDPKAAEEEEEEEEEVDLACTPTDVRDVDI
Sequence of CDK4 (Q16531 2-1140 limits assumed): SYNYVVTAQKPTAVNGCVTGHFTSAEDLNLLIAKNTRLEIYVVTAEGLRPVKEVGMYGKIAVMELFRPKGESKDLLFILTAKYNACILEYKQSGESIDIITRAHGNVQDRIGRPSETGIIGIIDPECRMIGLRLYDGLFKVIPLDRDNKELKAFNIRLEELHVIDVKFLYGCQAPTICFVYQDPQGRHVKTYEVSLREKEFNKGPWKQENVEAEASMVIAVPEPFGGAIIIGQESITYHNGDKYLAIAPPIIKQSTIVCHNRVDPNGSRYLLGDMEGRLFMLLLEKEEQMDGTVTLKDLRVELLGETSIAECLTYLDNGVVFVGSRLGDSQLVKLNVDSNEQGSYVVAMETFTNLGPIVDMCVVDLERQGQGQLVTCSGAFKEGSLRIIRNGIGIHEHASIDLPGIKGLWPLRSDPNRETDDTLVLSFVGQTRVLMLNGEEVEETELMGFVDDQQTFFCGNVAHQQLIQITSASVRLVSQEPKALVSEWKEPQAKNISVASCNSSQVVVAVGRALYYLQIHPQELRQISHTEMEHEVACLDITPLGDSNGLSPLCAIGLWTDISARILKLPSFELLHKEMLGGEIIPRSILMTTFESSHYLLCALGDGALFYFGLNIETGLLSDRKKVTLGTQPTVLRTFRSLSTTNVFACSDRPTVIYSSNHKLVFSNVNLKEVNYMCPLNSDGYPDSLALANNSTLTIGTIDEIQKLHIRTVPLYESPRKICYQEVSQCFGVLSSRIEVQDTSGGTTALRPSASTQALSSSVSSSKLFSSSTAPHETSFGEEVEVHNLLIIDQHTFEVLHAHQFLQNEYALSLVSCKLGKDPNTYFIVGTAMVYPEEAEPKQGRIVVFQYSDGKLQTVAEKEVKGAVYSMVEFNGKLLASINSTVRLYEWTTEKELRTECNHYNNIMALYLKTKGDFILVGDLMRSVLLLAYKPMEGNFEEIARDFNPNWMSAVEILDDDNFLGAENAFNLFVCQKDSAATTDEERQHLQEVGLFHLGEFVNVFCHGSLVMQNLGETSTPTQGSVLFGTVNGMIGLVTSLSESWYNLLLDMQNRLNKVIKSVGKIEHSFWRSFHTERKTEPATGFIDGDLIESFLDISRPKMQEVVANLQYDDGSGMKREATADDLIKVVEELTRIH

inhibition at 0.04 µM [%]	inhibition at 0.2 µM [%]	SMILES
30 to 50	50 to 80	CC(=O)c1c(C)c2cnc(Nc3ccc(N4CCN(CC(=O)NCC5CC(Nc6nc(C(C)C)ccc6C(=O)Nc6cc(C)n(C)n6)C5)CC4)cn3)nc2n(C2CCCC2)c1=O (centres unmarked) [CPD-212, 2-((3-((2-(4-(6-((6-acetyl-8-cyclopentyl-5-methyl-7-oxo-7,8-dihydropyrido[2,3-d]pyrimidin-2-yl)amino)pyridin-3-yl)piperazin-1-yl)acetamido)methyl)cyclobutyl)amino)-N-(1,5-dimethyl-1H-pyrazol-3-yl)-6-isopropylnicotinamide]
30 to 50	50 to 80	CC(=O)c1c(C)c2cnc(Nc3ccc(N4CCN(CC(=O)NCC5CC(Nc6nc(C7CC7)ccc6C(=O)Nc6cc(C)n(C)n6)C5)CC4)cn3)nc2n(C2CCCC2)c1=O (centres unmarked) [CPD-213, 2-((3-((2-(4-(6-((6-acetyl-8-cyclopentyl-5-methyl-7-oxo-7,8-dihydropyrido[2,3-d]pyrimidin-2-yl)amino)pyridin-3-yl)piperazin-1-yl)acetamido)methyl)cyclobutyl)amino)-6-cyclopropyl-N-(1,5-dimethyl-1H-pyrazol-3-yl)nicotinamide]
< 30	< 30	CNc1ccc(C(=O)Nc2cc(C3CC3)on2)c(NC2CC3(CC(NC(=O)CN4CCN(c5ccc(Nc6ncc7c(C)c(C(C)=O)c(=O)n(C8CCCC8)c7n6)nc5)CC4)C3)C2)n1 (centres unmarked) [CPD-215, 2-((6-(2-(4-(6-((6-acetyl-8-cyclopentyl-5-methyl-7-oxo-7,8-dihydropyrido[2,3-d]pyrimidin-2-yl)amino)pyridin-3-yl)piperazin-1-yl)acetamido)spiro[3.3]heptan-2-yl)amino)-N-(5-cyclopropylisoxazol-3-yl)-6-(methylamino)nicotinamide]
30 to 50	50 to 80	CNc1ccc(C(=O)Nc2ccc(N(C)C)nn2)c(NC2CC3(C2)CC(OC(C)(C)C(=O)N2CCN(c4ccc(Nc5ncc6c(C)c(C(C)=O)c(=O)n(C7CCCC7)c6n5)nc4)CC2)C3)n1 (centres unmarked) [CPD-216, 2-((6-((1-(4-(6-((6-acetyl-8-cyclopentyl-5-methyl-7-oxo-7,8-dihydropyrido[2,3-d]pyrimidin-2-yl)amino)pyridin-3-yl)piperazin-1-yl)-2-methyl-1-oxopropan-2-yl)oxy)spiro[3.3]heptan-2-yl)amino)-N-(6-(dimethylamino)pyridazin-3-yl)-6-(methylamino)nicotinamide]
30 to 50	50 to 80	CNc1ccc(C(=O)Nc2ccc(OC)c(C)n2)c(NC2CC3(CC(NC(=O)CN4CCN(c5ccc(Nc6ncc7c(C)c(C(C)=O)c(=O)n(C8CCCC8)c7n6)nc5)CC4)C3)C2)n1 (centres unmarked) [CPD-220, 2-((6-(2-(4-(6-((6-acetyl-8-cyclopentyl-5-methyl-7-oxo-7,8-dihydropyrido[2,3-d]pyrimidin-2-yl)amino)pyridin-3-yl)piperazin-1-yl)acetamido)spiro[3.3]heptan-2-yl)amino)-N-(5-methoxy-6-methylpyridin-2-yl)-6-(methylamino)nicotinamide]

Further lines, the molecule ahead of its results:

SMILES	inhibition at 0.04 µM [%]	inhibition at 0.2 µM [%]
CNc1ccc(C(=O)Nc2ccc(N(C)C)nn2)c(NC[C@H]2CC[C@@H](NC(=O)CN3CCN(c4ccc(Nc5ncc6c(C)c(C(C)=O)c(=O)n(C7CCCC7)c6n5)nc4)CC3)CC2)n1 [CPD-193, 2-(((cis-4-(2-(4-(6-((6-acetyl-8-cyclopentyl-5-methyl-7-oxo-7,8-dihydropyrido[2,3-d]pyrimidin-2-yl)amino)pyridin-3-yl)piperazin-1-yl)acetamido)cyclohexyl)methyl)amino)-N-(6-(dimethylamino)pyridazin-3-yl)-6-(methylamino)nicotinamide]	50 to 80	50 to 80
CNc1ccc(C(=O)Nc2ccc(N(C)C)nn2)c(NC(=O)CN2CCN(c3ccc(Nc4ncc5c(C)c(C(C)=O)c(=O)n(C6CCCC6)c5n4)nc3)CC2)n1 [CPD-194, 2-(2-(4-(6-((6-acetyl-8-cyclopentyl-5-methyl-7-oxo-7,8-dihydropyrido[2,3-d]pyrimidin-2-yl)amino)pyridin-3-yl)piperazin-1-yl)acetamido)-N-(6-(dimethylamino)pyridazin-3-yl)-6-(methylamino)nicotinamide]	< 30	< 30
CNc1ccc(C(=O)Nc2cn(C)c(C(C)C)n2)c(NC2CC3(CC(NC(=O)CN4CCN(c5ccc(Nc6ncc7c(C)c(C(C)=O)c(=O)n(C8CCCC8)c7n6)nc5)CC4)C3)C2)n1 (centres unmarked) [CPD-195, 2-((6-(2-(4-(6-((6-acetyl-8-cyclopentyl-5-methyl-7-oxo-7,8-dihydropyrido[2,3-d]pyrimidin-2-yl)amino)pyridin-3-yl)piperazin-1-yl)acetamido)spiro[3.3]heptan-2-yl)amino)-N-(2-isopropyl-1-methyl-1H-imidazol-4-yl)-6-(methylamino)nicotinamide]	< 30	50 to 80
CNc1ccc(C(=O)Nc2cccc(C)n2)c(NC2CC(NC(=O)CN3CCN(c4ccc(Nc5ncc6c(C)c(C(C)=O)c(=O)n(C7CCCC7)c6n5)nc4)CC3)C2)n1 (centres unmarked) [CPD-196, 2-((3-(2-(4-(6-((6-acetyl-8-cyclopentyl-5-methyl-7-oxo-7,8-dihydropyrido[2,3-d]pyrimidin-2-yl)amino)pyridin-3-yl)piperazin-1-yl)acetamido)cyclobutyl)amino)-6-(methylamino)-N-(6-methylpyridin-2-yl)nicotinamide]	< 30	30 to 50
CNc1ccc(C(=O)Nc2cc(C)n(C)n2)c(NC2CC(NC(=O)CN3CCN(c4ccc(Nc5ncc6c(C)c(C(C)=O)c(=O)n(C7CCCC7)c6n5)nc4)CC3)C2)n1 (centres unmarked) [CPD-197, 2-((3-(2-(4-(6-((6-acetyl-8-cyclopentyl-5-methyl-7-oxo-7,8-dihydropyrido[2,3-d]pyrimidin-2-yl)amino)pyridin-3-yl)piperazin-1-yl)acetamido)cyclobutyl)amino)-N-(1,5-dimethyl-1H-pyrazol-3-yl)-6-(methylamino)nicotinamide]	< 30	30 to 50
CNc1ccc(C(=O)Nc2cc(C)on2)c(NC2CC(NC(=O)CN3CCN(c4ccc(Nc5ncc6c(C)c(C(C)=O)c(=O)n(C7CCCC7)c6n5)nc4)CC3)C2)n1 (centres unmarked) [CPD-198, 2-((3-(2-(4-(6-((6-acetyl-8-cyclopentyl-5-methyl-7-oxo-7,8-dihydropyrido[2,3-d]pyrimidin-2-yl)amino)pyridin-3-yl)piperazin-1-yl)acetamido)cyclobutyl)amino)-6-(methylamino)-N-(5-methylisoxazol-3-yl)nicotinamide]	< 30	30 to 50
CNc1ccc(C(=O)Nc2ccc(N(C)C)nn2)c(NC2CCN(C(=O)CN3CCN(c4ccc(Nc5ncc6c(C)c(C(C)=O)c(=O)n(C7CCCC7)c6n5)nc4)CC3)C2)n1 (centres unmarked) [CPD-201, 2-((1-(2-(4-(6-((6-acetyl-8-cyclopentyl-5-methyl-7-oxo-7,8-dihydropyrido[2,3-d]pyrimidin-2-yl)amino)pyridin-3-yl)piperazin-1-yl)acetyl)pyrrolidin-3-yl)amino)-N-(6-(dimethylamino)pyridazin-3-yl)-6-(methylamino)nicotinamide]	30 to 50	50 to 80
CNc1ccc(C(=O)Nc2ccc(N(C)C)nn2)c(NC[C@H]2CC[C@H](CCC(=O)N3CCN(c4ccc(Nc5ncc6c(C)c(C(C)=O)c(=O)n(C7CCCC7)c6n5)nc4)CC3)CC2)n1 [CPD-204, 2-(((trans-4-(3-(4-(6-((6-acetyl-8-cyclopentyl-S-methyl-7-oxo-7,8-dihydropyrido[2,3-d]pyrimidin-2-yl)amino)pyridin-3-yl)piperazin-1-yl)-3-oxopropyl)cyclohexyl)methyl)amino)-N-(6-(dimethylamino)pyridazin-3-yl)-6-(methylamino)nicotinamide]	< 30	50 to 80
CC(=O)c1c(C)c2cnc(Nc3ccc(N4CCN(CC(=O)NC5CC6(C5)CC(Nc5nc(C)ccc5C(=O)Nc5cn(C)c(C7CC7)n5)C6)CC4)cn3)nc2n(C2CCCC2)c1=O (centres unmarked) [CPD-207, 2-((6-(2-(4-(6-((6-acetyl-8-cyclopentyl-5-methyl-7-oxo-7,8-dihydropyrido[2,3-d]pyrimidin-2-yl)amino)pyridin-3-yl)piperazin-1-yl)acetamido)spiro[3.3]heptan-2-yl)amino)-N-(2-cyclopropyl-1-methyl-1H-imidazol-4-yl)-6-methylnicotinamide]	30 to 50	50 to 80
CCc1ccc(C(=O)Nc2cc(C)n(C)n2)c(NC2CC(CNC(=O)CN3CCN(c4ccc(Nc5ncc6c(C)c(C(C)=O)c(=O)n(C7CCCC7)c6n5)nc4)CC3)C2)n1 (centres unmarked) [CPD-210, 2-((3-((2-(4-(6-((6-acetyl-8-cyclopentyl-5-methyl-7-oxo-7,8-dihydropyrido[2,3-d]pyrimidin-2-yl)amino)pyridin-3-yl)piperazin-1-yl)acetamido)methyl)cyclobutyl)amino)-N-(1,5-dimethyl-1H-pyrazol-3-yl)-6-ethylnicotinamide]	30 to 50	50 to 80
CNc1ccc(C(=O)Nc2ccc(N(C)C)nn2)c(NC2CN(C(=O)CCCN3CCN(c4ccc(Nc5ncc6c(C)c(C(C)=O)c(=O)n(C7CCCC7)c6n5)nc4)CC3)C2)n1 [CPD-211, 2-((1-(4-(4-(6-((6-acetyl-8-cyclopentyl-5-methyl-7-oxo-7,8-dihydropyrido[2,3-d]pyrimidin-2-yl)amino)pyridin-3-yl)piperazin-1-yl)butanoyl)azetidin-3-yl)amino)-N-(6-(dimethylamino)pyridazin-3-yl)-6-(methylamino)nicotinamide]	30 to 50	30 to 50
